From article PMC7484352 (Archives of biochemistry and biophysics, 2020)

Molecular target: T1, bDAD (DAD V1M) (Burkholderia sp. AZ11, UniProt F7J5X4, V1M)
T1 sequence (F7J5X4 1-177): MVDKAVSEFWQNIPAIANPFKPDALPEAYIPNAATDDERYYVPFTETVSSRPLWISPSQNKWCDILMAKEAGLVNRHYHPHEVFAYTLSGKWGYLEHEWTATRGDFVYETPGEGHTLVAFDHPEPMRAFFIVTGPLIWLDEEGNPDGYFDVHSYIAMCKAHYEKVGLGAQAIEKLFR
Assay: UV absorbance at […] nm, DHA consumption
Type: biochemical

How did the Ki turn out when O=C(O)c1ccc(O)cc1 [4HB, 4-hydroxybenzoic acid] was run?
Its Ki is 1100 ± 400 µM.
